In ChEMBL document CHEMBL4346716, “Synthesis of novel andrographolide beckmann rearrangement derivatives and evaluation of their HK2-related anti-inflammatory activities” (Eur J Med Chem, 2019):
Values belong to the molecule of their own block, whether it stands above or below them.

Experiments:
RAW264.7 = assay: Antiinflammatory activity in mouse RAW264.7 cells assessed as inhibition of LPS-induced NO production preincubated for 3 hrs followed by LPS addition measured after 24 hrs by Griess assay; format: functional, cell-based
Hexokinase-2 = molecular target: T1, Hexokinase-2 (Homo sapiens, UniProt P52789); assay: Inhibition of recombinant human HK2 expressed in Escherichia coli BL21(DE3) using glucose as substrate preincubated for 10 mins followed by substrate addition in presence of ATP by G6PDH/NADP coupled assay
T1 sequence (P52789 whole entry): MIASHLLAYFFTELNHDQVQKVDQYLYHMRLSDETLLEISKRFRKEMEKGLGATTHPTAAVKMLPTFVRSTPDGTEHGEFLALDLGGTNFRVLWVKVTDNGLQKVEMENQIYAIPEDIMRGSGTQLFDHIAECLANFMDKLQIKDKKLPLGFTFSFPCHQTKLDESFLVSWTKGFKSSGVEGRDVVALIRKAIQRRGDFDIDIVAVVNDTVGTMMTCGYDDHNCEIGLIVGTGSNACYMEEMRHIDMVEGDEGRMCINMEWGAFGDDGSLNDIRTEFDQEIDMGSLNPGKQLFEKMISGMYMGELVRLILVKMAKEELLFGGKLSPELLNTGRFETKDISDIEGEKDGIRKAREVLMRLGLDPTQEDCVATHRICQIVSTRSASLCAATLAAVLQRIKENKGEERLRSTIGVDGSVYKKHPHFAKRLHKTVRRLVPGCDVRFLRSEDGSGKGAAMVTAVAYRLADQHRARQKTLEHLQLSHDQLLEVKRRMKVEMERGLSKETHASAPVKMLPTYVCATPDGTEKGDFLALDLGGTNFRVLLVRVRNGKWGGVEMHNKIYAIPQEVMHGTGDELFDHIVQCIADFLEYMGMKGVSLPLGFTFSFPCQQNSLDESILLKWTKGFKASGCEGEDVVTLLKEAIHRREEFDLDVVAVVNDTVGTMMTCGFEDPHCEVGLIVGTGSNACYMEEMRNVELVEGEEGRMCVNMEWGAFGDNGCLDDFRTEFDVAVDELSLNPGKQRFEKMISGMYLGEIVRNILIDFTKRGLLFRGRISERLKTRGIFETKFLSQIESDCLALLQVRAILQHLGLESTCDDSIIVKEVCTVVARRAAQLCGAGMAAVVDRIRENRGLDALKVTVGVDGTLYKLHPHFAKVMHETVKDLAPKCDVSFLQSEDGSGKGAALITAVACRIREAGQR

[1] = compound: C=C1CC[C@H]2[C@@](C)(CCC(=O)N[C@@]2(C)COC(=O)CCCC[C@@H]2CCSS2)[C@@H]1/C=C/C1=CCOC1=O; assay: Non competitive inhibition of recombinant human HK2 expressed in Escherichia coli BL21(DE3) assessed as Vmax using 12.5 uM glucose as substrate by Lineweaver-Burk double reciprocal plot analysis (reference value: 0.012 OD/min)
[2] = compound: C=C1CC[C@H]2[C@@](C)(CCC(=O)N[C@@]2(C)COC(=O)CCCC[C@@H]2CCSS2)[C@@H]1/C=C/C1=CCOC1=O; assay: Non competitive inhibition of recombinant human HK2 expressed in Escherichia coli BL21(DE3) assessed as Km using 6.25 uM ATP as substrate by Lineweaver-Burk double reciprocal plot analysis (reference value: 1.62 mM)
[3] = compound: C=C1CC[C@H]2[C@@](C)(CCC(=O)N[C@@]2(C)COC(=O)CCCC[C@@H]2CCSS2)[C@@H]1/C=C/C1=CCOC1=O; assay: Non competitive inhibition of recombinant human HK2 expressed in Escherichia coli BL21(DE3) assessed as Km using 6.25 uM glucose as substrate by Lineweaver-Burk double reciprocal plot analysis (reference value: 0.64 mM)
[4] = compound: C=C1CC[C@H]2[C@@](C)(CCC(=O)N[C@@]2(C)COC(=O)CCCC[C@@H]2CCSS2)[C@@H]1/C=C/C1=CCOC1=O; assay: Non competitive inhibition of recombinant human HK2 expressed in Escherichia coli BL21(DE3) assessed as Vmax using 3.125 uM glucose as substrate by Lineweaver-Burk double reciprocal plot analysis (reference value: 0.012 OD/min)
[5] = compound: C=C1CC[C@H]2[C@@](C)(CCC(=O)N[C@@]2(C)COC(=O)CCCC[C@@H]2CCSS2)[C@@H]1/C=C/C1=CCOC1=O; assay: Non competitive inhibition of recombinant human HK2 expressed in Escherichia coli BL21(DE3) assessed as Vmax using 6.25 uM ATP as substrate by Lineweaver-Burk double reciprocal plot analysis (reference value: 0.019 OD/min)
[6] = compound: C=C1CC[C@H]2[C@@](C)(CCC(=O)N[C@@]2(C)COC(=O)CCCC[C@@H]2CCSS2)[C@@H]1/C=C/C1=CCOC1=O; assay: Non competitive inhibition of recombinant human HK2 expressed in Escherichia coli BL21(DE3) assessed as Km using 12.5 uM glucose as substrate by Lineweaver-Burk double reciprocal plot analysis (reference value: 0.64 mM)
[7] = compound: C=C1CC[C@H]2[C@@](C)(CCC(=O)N[C@@]2(C)COC(=O)CCCC[C@@H]2CCSS2)[C@@H]1/C=C/C1=CCOC1=O; assay: Non competitive inhibition of recombinant human HK2 expressed in Escherichia coli BL21(DE3) assessed as Vmax using 3.125 uM ATP as substrate by Lineweaver-Burk double reciprocal plot analysis (reference value: 0.019 OD/min)
[8] = compound: C=C1CC[C@H]2[C@@](C)(CCC(=O)N[C@@]2(C)COC(=O)CCCC[C@@H]2CCSS2)[C@@H]1/C=C/C1=CCOC1=O; assay: Non competitive inhibition of recombinant human HK2 expressed in Escherichia coli BL21(DE3) assessed as Km using 12.5 uM ATP as substrate by Lineweaver-Burk double reciprocal plot analysis (reference value: 1.62 mM)
[9] = compound: C=C1CC[C@H]2[C@@](C)(CCC(=O)N[C@@]2(C)COC(=O)CCCC[C@@H]2CCSS2)[C@@H]1/C=C/C1=CCOC1=O; assay: Non competitive inhibition of recombinant human HK2 expressed in Escherichia coli BL21(DE3) assessed as Km using 3.125 uM glucose as substrate by Lineweaver-Burk double reciprocal plot analysis (reference value: 0.64 mM)
[10] = compound: C=C1CC[C@H]2[C@@](C)(CCC(=O)N[C@@]2(C)COC(=O)CCCC[C@@H]2CCSS2)[C@@H]1/C=C/C1=CCOC1=O; assay: Non competitive inhibition of recombinant human HK2 expressed in Escherichia coli BL21(DE3) assessed as Vmax using 6.25 uM glucose as substrate by Lineweaver-Burk double reciprocal plot analysis (reference value: 0.012 OD/min)
[11] = compound: C=C1CC[C@H]2[C@@](C)(CCC(=O)N[C@@]2(C)COC(=O)CCCC[C@@H]2CCSS2)[C@@H]1/C=C/C1=CCOC1=O; assay: Non competitive inhibition of recombinant human HK2 expressed in Escherichia coli BL21(DE3) assessed as Km using 3.125 uM ATP as substrate by Lineweaver-Burk double reciprocal plot analysis (reference value: 1.62 mM)
[12] = compound: C=C1CC[C@H]2[C@@](C)(CCC(=O)N[C@@]2(C)COC(=O)CCCC[C@@H]2CCSS2)[C@@H]1/C=C/C1=CCOC1=O; assay: Non competitive inhibition of recombinant human HK2 expressed in Escherichia coli BL21(DE3) assessed as Vmax using 12.5 uM ATP as substrate by Lineweaver-Burk double reciprocal plot analysis (reference value: 0.019 OD/min)

Molecule: C=C1CC[C@H]2[C@@](C)(CC[C@@H](OC(=O)c3ccccc3[N+](=O)[O-])[C@@]2(C)NC=O)[C@@H]1/C=C/C1=CCOC1=O
IC50 (RAW264.7): > 50 µM
IC50 (Hexokinase-2): > 50 µM

Molecule: C=C1CC[C@H]2[C@@](C)(CCC(=O)N[C@@]2(C)COC(=O)[C@H](N)CC(C)C)[C@@H]1/C=C/C1=CCOC1=O
IC50 (RAW264.7): > 50 µM
IC50 (Hexokinase-2): > 50 µM

Molecule: C=C1CC[C@H]2[C@@](C)(CC[C@@H](OC(=O)CNC)[C@@]2(C)NC=O)[C@@H]1/C=C/C1=CCOC1=O
IC50 (RAW264.7): > 50 µM
IC50 (Hexokinase-2): > 50 µM

Molecule: C=C1CC[C@H]2[C@@](C)(CC[C@@H](OC(=O)c3cccnc3)[C@@]2(C)NC=O)[C@@H]1/C=C/C1=CCOC1=O
IC50 (RAW264.7): > 50 µM
IC50 (Hexokinase-2): > 50 µM

Molecule: C=C1CC[C@H]2[C@@](C)(CCC(=O)N[C@@]2(C)COC(=O)c2cccnc2)[C@@H]1/C=C/C1=CCOC1=O
IC50 (RAW264.7): > 50 µM
IC50 (Hexokinase-2): > 50 µM

Molecule: C=C1CC[C@H]2[C@@](C)(CCC(=O)N[C@@]2(C)COC(=O)c2ccccc2[N+](=O)[O-])[C@@H]1/C=C/C1=CCOC1=O
IC50 (RAW264.7): > 50 µM
IC50 (Hexokinase-2): > 50 µM

Molecule: C=C1CC[C@H]2[C@@](C)(CC[C@@H](OC(=O)CN)[C@@]2(C)NC=O)[C@@H]1/C=C/C1=CCOC1=O
IC50 (RAW264.7): > 50 µM
IC50 (Hexokinase-2): > 50 µM

Molecule: C=C1CC[C@H]2[C@@](C)(CC[C@@H](OC(=O)[C@@H](N)Cc3ccccc3)[C@@]2(C)NC=O)[C@@H]1/C=C/C1=CCOC1=O
IC50 (RAW264.7): > 50 µM
IC50 (Hexokinase-2): > 50 µM

Molecule: C=C1CC[C@H]2[C@@](C)(CC[C@@H](OC(=O)CCCC[C@@H]3CCSS3)[C@@]2(C)NC=O)[C@@H]1/C=C/C1=CCOC1=O
IC50 (RAW264.7): > 50 µM
IC50 (Hexokinase-2): > 50 µM

Molecule: C=C1CC[C@H]2[C@@](C)(CCC(=O)N[C@@]2(C)COC(=O)[C@H](N)Cc2ccccc2)[C@@H]1/C=C/C1=CCOC1=O
IC50 (RAW264.7): > 50 µM
IC50 (Hexokinase-2): 4.8 µM

Molecule: C=C1CC[C@H]2[C@@](C)(CCC(=O)N[C@@]2(C)COC(=O)[C@@H]2CCCN2)[C@@H]1/C=C/C1=CCOC1=O
IC50 (RAW264.7): > 50 µM
IC50 (Hexokinase-2): > 50 µM

B1: Hexokinase-2 (Homo sapiens), P52789 (protein)
chain: T1 sequence (P52789 whole entry)
Vmax (optical density/minute) [1]: 0.004
Km [2]: 1280 µM
Km [3]: 695 µM
Vmax (optical density/minute) [4]: 0.007
Vmax (optical density/minute) [5]: 0.007
Km [6]: 657 µM
Vmax (optical density/minute) [7]: 0.012
Km [8]: 1210 µM
Km [9]: 685 µM
Vmax (optical density/minute) [10]: 0.005
Km [11]: 1280 µM
Vmax (optical density/minute) [12]: 0.005

Further lines, results first:

IC50 (RAW264.7): > 50 µM
IC50 (Hexokinase-2): > 50 µM
Molecule: C=C1CC[C@H]2[C@@](C)(CCC(=O)N[C@@]2(C)COC(=O)c2ccccc2)[C@@H]1/C=C/C1=CCOC1=O

IC50 (RAW264.7): > 50 µM
IC50 (Hexokinase-2): > 50 µM
Molecule: C=C1CC[C@H]2[C@@](C)(CC[C@@H](OC(=O)C(N)CC(C)C)[C@@]2(C)NC=O)[C@@H]1/C=C/C1=CCOC1=O (single isomer, unassigned)

IC50 (RAW264.7): > 50 µM
IC50 (Hexokinase-2): > 50 µM
Molecule: C=C1CC[C@H]2[C@@](C)(CCC(=O)N[C@@]2(C)CO)[C@@H]1/C=C/C1=CCOC1=O

IC50 (RAW264.7): > 50 µM
IC50 (Hexokinase-2): > 50 µM
Molecule: C=C1CC[C@H]2[C@@](C)(CC[C@@H](OC(=O)c3ccc([N+](=O)[O-])cc3)[C@@]2(C)NC=O)[C@@H]1/C=C/C1=CCOC1=O

IC50 (RAW264.7): > 50 µM
IC50 (Hexokinase-2): > 50 µM
Molecule: C=C1CC[C@H]2[C@@](C)(CC[C@@H](O)[C@@]2(C)NC=O)[C@@H]1/C=C/C1=CCOC1=O

IC50 (RAW264.7): > 50 µM
IC50 (Hexokinase-2): 26.1 µM
Molecule: C=C1CC[C@H]2[C@@](C)(CC[C@@H](OC(=O)[C@H]3CCCN3)[C@@]2(C)NC=O)[C@@H]1/C=C/C1=CCOC1=O

IC50 (RAW264.7): 14.4 µM
IC50 (Hexokinase-2): > 50 µM
Molecule: C=C1CC[C@@H]2[C@](C)(CO)[C@H](O)CC[C@@]2(C)[C@@H]1C/C=C1/C(=O)OC[C@H]1O [ANDROGRAPHOLIDE]

IC50 (RAW264.7): 50 µM
IC50 (Hexokinase-2): > 50 µM
Molecule: C=C1CC[C@H]2[C@@](C)(CC[C@@H](OC(=O)c3ccccc3)[C@@]2(C)NC=O)[C@@H]1/C=C/C1=CCOC1=O

IC50 (RAW264.7): 33.5 µM
IC50 (Hexokinase-2): > 50 µM
Molecule: C=C1CC[C@H]2[C@@](C)(CCC(=O)N[C@@]2(C)COC(=O)c2ccc([N+](=O)[O-])cc2)[C@@H]1/C=C/C1=CCOC1=O

IC50 (RAW264.7): 52.4 µM
Molecule: C[C@]12CCC(=O)C=C1CC[C@@H]1[C@@H]2[C@@H](O)C[C@@]2(C)[C@H]1CC[C@]2(O)C(=O)CO [HYDROCORTISONE]
